molecular target: human recombinant GABAA α5β3γ2 receptor (Homo sapiens (Human), UniProt P18507+P31644); experiment: Binding assay, [3H]Ro151788 displacement on membranes of HEK cells; details: 0.5 nM [3H]Ro151788, 60 minutes at 4° C., Cheng-Prusoff; read-out: hGABAA α5 Ki
Experimental: The GABAA α5β3γ2 protein used for the receptor binding assay was derived from membranes produced from HEK cells (Millipore CYL3073) expressing the human recombinant GABAA α5β3γ2 receptor. Cells were stored and cultured in-house according to the instructions provided by the vendor (Millipor). Cell pellet was homogenized in 10 times modified Krebs Henseleit buffer (membrane preparation buffer): 20 mM Tris, 120 mM NaCl, 100 mM KCl, 25 mM CaCl2) and 25 mM MgCl2 pH=7.4 at 4° C. using Ultra Turrax (Janke&Kunkel) maximal speed for 15 seconds. The homogenate was centrifuged at 40,000 g for 30 minutes at 4° C. Supernatant was discarded and the resulting pellet was washed in membrane preparation buffer. Pellet was resuspended in membrane preparation buffer and aliquots of 1.4 mL ampulles were stored at −70° C. until use.
Receptor binding assays were performed in 96-well format in deep-well plates. For each 96-well plate one ampulle of membrane homogenate was thawed and diluted in binding buffer (50 mM Tris pH=7.4, 100 mM KCl) and 200 μL was dispensed into each well. Radioligand [^3H]Ro151788 (Perkin Elmer: NET757250UC) was prepared in binding buffer and added to each well in 50 μL volume to give final concentration of 0.5 nM. Test compounds in suitable concentration(s) were added in additional 50 μL. The final assay volume was 300 μL. Incubation was carried out for 60 minutes at 4° C. For non-specific binding 10 μM unlabeled diazepam was used. After incubation samples were filtered over UniFilter® GF/B™ using Filtermate Harvester (Perkin Elmer) and washed with 5×1 mL binding buffer. The plate was dried at 40° C. for an hour and 40 μL Microscint (Perkin Elmer) scintillation cocktail was added to each well. The plate was read in Microbeta (Perkin Elmer).
The specific radioligand binding (SB) was defined as the difference between total binding (Tot) and the non-specific binding (NSB). Results are expressed as a percent inhibition of specific binding obtained in the presence of compound of interest.
For IC50 and Ki determination a minimum of six drug concentrations in triplicate were used. […] Ki values (i.e. inhibition constants) were calculated using the Cheng-Prusoff equation Ki=IC50/[1+(L/KD)], where [L] is the radioligand concentration and KD the affinity of the labelled ligand for receptor. KD was determined from the Saturation analyses.

human recombinant GABAA α5β3γ2 receptor, sequence (P31644 32-462): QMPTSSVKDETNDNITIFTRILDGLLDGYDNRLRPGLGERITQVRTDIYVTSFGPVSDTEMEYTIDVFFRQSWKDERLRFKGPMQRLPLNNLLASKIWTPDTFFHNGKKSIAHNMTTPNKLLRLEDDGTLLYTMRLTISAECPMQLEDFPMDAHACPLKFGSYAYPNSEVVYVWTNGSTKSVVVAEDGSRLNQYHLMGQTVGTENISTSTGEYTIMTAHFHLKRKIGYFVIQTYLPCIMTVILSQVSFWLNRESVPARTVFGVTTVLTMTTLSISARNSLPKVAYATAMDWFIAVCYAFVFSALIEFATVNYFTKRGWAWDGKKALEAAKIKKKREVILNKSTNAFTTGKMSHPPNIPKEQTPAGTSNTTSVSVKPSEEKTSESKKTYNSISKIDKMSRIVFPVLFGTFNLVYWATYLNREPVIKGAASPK
human recombinant GABAA α5β3γ2 receptor, sequence (P28472 26-473 partner): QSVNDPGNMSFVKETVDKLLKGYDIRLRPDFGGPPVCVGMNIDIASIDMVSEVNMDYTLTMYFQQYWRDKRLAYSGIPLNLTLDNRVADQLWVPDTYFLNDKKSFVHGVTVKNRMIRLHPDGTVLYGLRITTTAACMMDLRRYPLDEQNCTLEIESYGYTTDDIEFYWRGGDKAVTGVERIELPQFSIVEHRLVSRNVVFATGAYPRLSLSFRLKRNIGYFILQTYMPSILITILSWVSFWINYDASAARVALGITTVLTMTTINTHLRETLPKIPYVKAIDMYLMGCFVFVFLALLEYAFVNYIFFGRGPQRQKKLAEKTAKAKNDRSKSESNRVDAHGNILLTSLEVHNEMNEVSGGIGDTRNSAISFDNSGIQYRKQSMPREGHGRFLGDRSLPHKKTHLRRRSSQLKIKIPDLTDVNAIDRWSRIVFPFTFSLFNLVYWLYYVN
human recombinant GABAA α5β3γ2 receptor, sequence (P18507 40-475): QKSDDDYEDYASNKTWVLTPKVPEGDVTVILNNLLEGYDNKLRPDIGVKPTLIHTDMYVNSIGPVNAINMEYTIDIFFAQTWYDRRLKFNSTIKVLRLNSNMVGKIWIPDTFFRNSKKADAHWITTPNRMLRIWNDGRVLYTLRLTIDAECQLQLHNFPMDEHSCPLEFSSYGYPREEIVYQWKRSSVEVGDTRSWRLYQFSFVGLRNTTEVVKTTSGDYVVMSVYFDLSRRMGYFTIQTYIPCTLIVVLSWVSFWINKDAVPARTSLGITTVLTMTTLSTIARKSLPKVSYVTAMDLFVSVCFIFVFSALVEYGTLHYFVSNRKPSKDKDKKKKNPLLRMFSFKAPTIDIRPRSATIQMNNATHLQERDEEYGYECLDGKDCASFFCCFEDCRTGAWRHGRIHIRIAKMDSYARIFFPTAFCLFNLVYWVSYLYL

**Q.** For `CC(=O)N1CCc2nc(OCc3c(-c4ccc(F)cc4)noc3C)ccc2C1` [Example 1, 1-[2-{[3-(4-fluorophenyl)-5-methyl-1,2-oxazol-4-yl]methoxy}-7,8-dihydro-1,6-naphthyridin-6(5H)-yl]ethanone], which Ki is on record?
**A.** Its Ki is 0.0028 µM.

**Q.** For `Cc1onc(-c2ccc(F)cc2)c1COc1ccc2c(n1)CCN(C(=O)c1ccno1)C2` [Example 3, 2-{[3-(4-fluorophenyl)-5-methyl-1,2-oxazol-4-yl]methoxy}-6-(1,2-oxazole-5-carbonyl)-5,6,7,8-tetrahydro-1,6-naphthyridine], which Ki is on record?
**A.** The Ki was 0.005 µM.

**Q.** `Cc1onc(-c2ccc(F)cc2)c1COc1ccc2c(n1)CCN(C(=O)C1CCC1)C2` [Example 4, 6-cyclobutanecarbonyl-2-{[3-(4-fluorophenyl)-5-methyl-1,2-oxazol-4-yl]methoxy}-5,6,7,8-tetrahydro-1,6-naphthyridine] was tested. Which Ki did it give?
**A.** Its Ki is 0.016 µM.

**Q.** For `Cc1onc(-c2ccc(F)cc2)c1COc1ccc2c(n1)CCN(C(=O)C1CC1)C2` [Example 5, 6-cyclopropanecarbonyl-2-{[3-(4-fluorophenyl)-5-methyl-1,2-oxazol-4-yl]methoxy}-5,6,7,8-tetrahydro-1,6-naphthyridine], which Ki is on record?
**A.** The Ki was 0.0078 µM.

**Q.** With `Cc1onc(-c2ccc(F)cc2)c1COc1ccc2c(n1)CCN(C(=O)C1CCCO1)C2` (stereo not drawn) [Example 7, 2-{[3-(4-fluorophenyl)-5-methyl-1,2-oxazol-4-yl]methoxy}-6-(oxolane-2-carbonyl)-5,6,7,8-tetrahydro-1,6-naphthyridine] as the compound, how does the Ki read?
**A.** The Ki was 0.0068 µM.

**Q.** How did the Ki turn out when `Cc1cc(C(=O)N2CCc3nc(OCc4c(-c5ccc(F)cc5)noc4C)ccc3C2)no1` [Example 10, 2-{[3-(4-fluorophenyl)-5-methyl-1,2-oxazol-4-yl]methoxy}-6-(5-methyl-1,2-oxazole-3-carbonyl)-5,6,7,8-tetrahydro-1,6-naphthyridine] was run?
**A.** The Ki was 0.021 µM.

**Q.** `Cc1onc(-c2ccc(F)cc2)c1COc1ccc2c(n1)CCN(C(=O)c1ccn(C)c1)C2` [Example 11, 2-{[3-(4-fluorophenyl)-5-methyl-1,2-oxazol-4-yl]methoxy}-6-(1-methyl-1H-pyrrole-3-carbonyl)-5,6,7,8-tetrahydro-1,6-naphthyridine] was tested. Which Ki did it give?
**A.** Its Ki is 0.011 µM.

**Q.** For `Cc1onc(-c2ccc(F)cc2)c1COc1ccc2c(n1)CCN(C(=O)C(F)(F)F)C2` [Example 12, 2,2,2-trifluoro-1-(2-{[3-(4-fluorophenyl)-5-methyl-1,2-oxazol-4-yl]methoxy}-5,6,7,8-tetrahydro-1,6-naphthyridin-6-yl)ethan-1-one], which Ki is on record?
**A.** The Ki was 0.014 µM.

**Q.** `Cc1nnn(-c2ccc(F)cc2)c1COc1ccc2c(n1)CCN(C(=O)C1CC1)C2` [Example 19, 6-cyclopropanecarbonyl-2-{[1-(4-fluorophenyl)-4-methyl-1H-1,2,3-triazol-5-yl]methoxy}-5,6,7,8-tetrahydro-1,6-naphthyridine] was tested. Which Ki did it give?
**A.** Its Ki is 0.049 µM.

**Q.** How did the Ki turn out when `Cc1nnn(-c2ccc(F)cc2)c1COc1ccc2c(n1)CCN(C(=O)c1ccno1)C2` [Example 20, 2-{[1-(4-fluorophenyl)-4-methyl-1H-1,2,3-triazol-5-yl]methoxy}-6-(1,2-oxazole-5-carbonyl)-5,6,7,8-tetrahydro-1,6-naphthyridine] was run?
**A.** The Ki was 0.024 µM.

**Q.** With `Cc1nnn(-c2ccc(F)cc2)c1COc1ccc2c(n1)CCN(C(=O)C1CC(=O)N(C)C1)C2` (stereo not drawn) [Example 21, 4-(2-{[1-(4-fluorophenyl)-4-methyl-1H-1,2,3-triazol-5-yl]methoxy}-5,6,7,8-tetrahydro-1,6-naphthyridine-6-carbonyl)-1-methylpyrrolidin-2-one] as the compound, how does the Ki read?
**A.** Its Ki is 0.035 µM.

**Q.** Which Ki does the source give for `Cc1nnn(-c2ccc(F)cc2)c1COc1ccc2c(n1)CCN(C(=O)C(C)C)C2` [Example 22, 1-(2-{[1-(4-fluorophenyl)-4-methyl-1H-1,2,3-triazol-5-yl]methoxy}-5,6,7,8-tetrahydro-1,6-naphthyridin-6-yl)-2-methylpropan-1-one] here?
**A.** The Ki was 0.057 µM.

**Q.** For `CCC(=O)N1CCc2nc(OCc3c(C)nnn3-c3ccc(F)cc3)ccc2C1` [Example 24, 1-(2-{[1-(4-fluorophenyl)-4-methyl-1H-1,2,3-triazol-5-yl]methoxy}-5,6,7,8-tetrahydro-1,6-naphthyridin-6-yl)propan-1-one], which Ki is on record?
**A.** Its Ki is 0.046 µM.

**Q.** Which Ki does the source give for `Cc1nnn(-c2ccc(F)cc2)c1COc1ccc2c(n1)CCN(C(=O)c1ccncc1)C2` [Example 25, 2-{[1-(4-fluorophenyl)-4-methyl-1H-1,2,3-triazol-5-yl]methoxy}-6-(pyridine-4-carbonyl)-5,6,7,8-tetrahydro-1,6-naphthyridine] here?
**A.** The Ki was 0.029 µM.

**Q.** How did the Ki turn out when `Cc1nnn(-c2ccc(F)cc2)c1COc1ccc2c(n1)CCN(C(=O)c1ccccn1)C2` [Example 26, 2-{[1-(4-fluorophenyl)-4-methyl-1H-1,2,3-triazol-5-yl]methoxy}-6-(pyridine-2-carbonyl)-5,6,7,8-tetrahydro-1,6-naphthyridine] was run?
**A.** Its Ki is 0.08 µM.

**Q.** How did the Ki turn out when `Cc1nnn(-c2ccc(F)cc2)c1COc1ccc2c(n1)CCN(C(=O)c1cccc(Cl)c1)C2` [Example 27, 6-(3-chlorobenzoyl)-2-{[1-(4-fluorophenyl)-4-methyl-1H-1,2,3-triazol-5-yl]methoxy}-5,6,7,8-tetrahydro-1,6-naphthyridine] was run?
**A.** The Ki was 0.137 µM.

**Q.** For `Cc1nnn(-c2ccc(F)cc2)c1COc1ccc2c(n1)CCN(C(=O)C1CCCOC1)C2` (stereo not drawn) [Example 30, 2-{[1-(4-fluorophenyl)-4-methyl-1H-1,2,3-triazol-5-yl]methoxy}-6-(oxane-3-carbonyl)-5,6,7,8-tetrahydro-1,6-naphthyridine], which Ki is on record?
**A.** Its Ki is 0.082 µM.

**Q.** Which Ki does the source give for `Cc1nnn(-c2ccc(F)cc2)c1COc1ccc2c(n1)CCN(C(=O)C1(C)CCOC1)C2` (stereo not drawn) [Example 31, 2-{[1-(4-fluorophenyl)-4-methyl-1H-1,2,3-triazol-5-yl]methoxy}-6-(3-methyloxolane-3-carbonyl)-5,6,7,8-tetrahydro-1,6-naphthyridine] here?
**A.** Its Ki is 0.044 µM.

**Q.** `Cc1nnn(-c2ccc(Cl)cc2)c1COc1ccc2c(n1)CCN(C(=O)C1CCOCC1)C2` [Example 32, 2-{[1-(4-chlorophenyl)-4-methyl-1H-1,2,3-triazol-5-yl]methoxy}-6-(oxane-4-carbonyl)-5,6,7,8-tetrahydro-1,6-naphthyridine] was tested. Which Ki did it give?
**A.** The Ki was 0.022 µM.

**Q.** Which Ki does the source give for `Cc1nnn(-c2ccc(Cl)cc2)c1COc1ccc2c(n1)CCN(C(=O)c1ccncc1)C2` [Example 33, 2-{[1-(4-chlorophenyl)-4-methyl-1H-1,2,3-triazol-5-yl]methoxy}-6-(pyridine-4-carbonyl)-5,6,7,8-tetrahydro-1,6-naphthyridine] here?
**A.** The Ki was 0.014 µM.

**Q.** `CC(=O)N1CCc2ccc(OCc3c(C)nnn3-c3ccc(F)cc3)nc2C1` [Example 34, 1-(2-{[1-(4-fluorophenyl)-4-methyl-1H-1,2,3-triazol-5-yl]methoxy}-5,6,7,8-tetrahydro-1,7-naphthyridin-7-yl)ethan-1-one] was tested. Which Ki did it give?
**A.** The Ki was 0.112 µM.

**Q.** Which Ki does the source give for `COC1CCC(C(=O)N2CCc3nc(OCc4c(C)nnn4-c4ccc(F)cc4)ccc3C2)CC1` (stereo not drawn) [Example 35, 2-{[1-(4-fluorophenyl)-4-methyl-1H-1,2,3-triazol-5-yl]methoxy}-6-(4-methoxycyclohexanecarbonyl)-5,6,7,8-tetrahydro-1,6-naphthyridine] here?
**A.** Its Ki is 0.071 µM.

**Q.** With `CC(=O)N1CCc2nc(OCc3c(C)nnn3-c3ccc(Cl)cc3)ccc2C1` [Example 36, 1-(2-{[1-(4-chlorophenyl)-4-methyl-1H-1,2,3-triazol-5-yl]methoxy}-5,6,7,8-tetrahydro-1,6-naphthyridin-6-yl)ethan-1-one] as the compound, how does the Ki read?
**A.** The Ki was 0.0098 µM.

**Q.** `Cc1nnn(-c2ccc(F)cc2)c1COc1ccc2c(n1)CCN(C(=O)c1ccc(C(F)(F)F)nc1)C2` [Example 37, 2-{[1-(4-fluorophenyl)-4-methyl-1H-1,2,3-triazol-5-yl]methoxy}-6-[6-(trifluoromethyl)pyridine-3-carbonyl]-5,6,7,8-tetrahydro-1,6-naphthyridine] was tested. Which Ki did it give?
**A.** Its Ki is 0.069 µM.

**Q.** With `Cc1nnn(-c2ccc(Cl)cc2)c1COc1ccc2c(n1)CCN(C(=O)[C@H]1CCOC1)C2` [Example 38, 2-{[1-(4-chlorophenyl)-4-methyl-1H-1,2,3-triazol-5-yl]methoxy}-6-[(3S)-oxolane-3-carbonyl]-5,6,7,8-tetrahydro-1,6-naphthyridine] as the compound, how does the Ki read?
**A.** Its Ki is 0.018 µM.

**Q.** With `Cc1nnn(-c2ccc(F)cc2)c1COc1ccc2c(n1)CCN(C(=O)c1cccnc1)C2` [Example 39, 2-{[1-(4-fluorophenyl)-4-methyl-1H-1,2,3-triazol-5-yl]methoxy}-6-(pyridine-3-carbonyl)-5,6,7,8-tetrahydro-1,6-naphthyridine] as the compound, how does the Ki read?
**A.** The Ki was 0.024 µM.

**Q.** For `Cc1nnn(-c2ccc(F)cc2)c1COc1ccc2c(n1)CCN(C(=O)[C@@H]1CCC(=O)N1C)C2` [Example 40, (5S)-5-(2-{[1-(4-fluorophenyl)-4-methyl-1H-1,2,3-triazol-5-yl]methoxy}-5,6,7,8-tetrahydro-1,6-naphthyridine-6-carbonyl)-1-methylpyrrolidin-2-one], which Ki is on record?
**A.** Its Ki is 0.056 µM.

Reference: US12370182B2, “Bicyclic derivatives as GABAA A5 receptor modulators” (RICHTER GEDEON NYRT., priority 2018, dated 2025)
